In paper PMC4820820, “CETSA screening identifies known and novel thymidylate synthase inhibitors and slow intracellular activation of 5-fluorouracil” (Nature Communications, 2016):
Read-outs that look alike come from different tables or passages of the source.

Legend:
TS = TS (Homo sapiens, UniProt P04818); test: Thermal shift in vitro assay on recombinant protein; format: binding; design: His6 tag with TEV site (vector-encoded by pNIC28-Bsa4); made in house; host or cells: Rosetta BL21-DE3 Escherichia coli
Protocol: The assay was performed on the iCycler iQ Real Time PCR Detection System (Bio-Rad), using the 96-well thin-wall PCR plate (Bio-Rad). The experiment was conducted in a buffer containing 20 mM HEPES at pH 7.5 and 150 mM NaCl. A total volume of 25 μl solution containing 0.2 mg ml^−1 protein, compounds and × 5 Sypro Orange dye (Invitrogen) diluted from 5,000 × stock was dispensed into the 96-well plate. The same amount of DMSO was added in the control wells. The plates were sealed with Microseal B adhesive sealer (Bio-Rad) and heated in iCycler from 25 to 80 °C (56 heating cycles in 28 min). Fluorescent filter used for Sypro Orange measurements was λexcitation=492 nm and λemission=610 nm. The calculation of the midpoint of the curves (Tm) was performed using the software package XLfit from IDBS within microsoft excel.
Decitabine at a concentration of 1 mM was incubated with 1 mg ml^−1 of recombinant DCK and 2.5 mM ATP in a buffer of 50 mM Tris at pH 7.5, 150 mM NaCl and 0.5 mM MgCl2 at room temperature for 60 min to generate the corresponding monophosphates. To probe for nucleotide deamination the samples were further treated with 1 mg ml^−1 of recombinant DCTD in the presence of 1 mM ATP and 10 μM ZnCl2 for 20 min at room temperature. After incubation, the samples were heated at 95 °C for 10 min and centrifuged for 10 min at the highest speed at 4 °C using a benchtop centrifuge. The supernatant was tested without dilution in thermal shift in vitro assays and the TS enzyme inhibition assay. The supernatants from samples without nucleoside were used as the treatment controls.

[1] = target: T1, human thymidylate synthase (TS) (Homo sapiens, UniProt P04818); test: CETSA primary screen / single-concentration retest, AlphaScreen, live K562 cells; format: cell-based
T1 construct: screening in live, non-engineered cells expressing thymidylate synthase; endogenous in cells; host or cells: K562 (human myelogenous leukemia) cells
Protocol: Compounds were placed in columns 1–22. […] At the day of the experiment the plates were allowed to thaw for 30 min followed by a brief centrifugation step (1,000 × g for 1 min) prior to removal of the seal. The compounds were then diluted with 20 μl supplemented cell culture medium using a Multidrop Combi reagent dispenser (Thermo Scientific). Finally 5 μl of the diluted compounds were transferred to a 384 well hardshell PCR plate (HSR480, BIORAD) using a Bravo liquid handling platform equipped with a 384-well head (Agilent). […] The final concentration of DMSO in the assay was 0.5% in all samples.
The screen procedure started with the addition of 5 μl of a suspension of K562 cells at a density of 10 million cells per ml to all wells of a 384 well hardshell PCR plate (HSR480, BIORAD) using an electronic multichannel pipette (Biohit). […] For the time-course experiments the incubation times were altered to include also 10 min, 30 min and 6 h. […] After the incubation step the plates were transiently heated at 50 °C for 3 min followed by a controlled cooling to 20 °C for 1 min using a real-time PCR machine (LightCycler480 system, Roche). Plate handling was then as described above for the thermal aggregation experiments. The data were analyzed using microsoft excel and GraphPad Prism 6.
A calculation of the average and standard error of means for each set of controls also allowed an illustration of how these responses varied over the 32 screening plates. The Z′ factor[38] is commonly used as a measure of how well the assay separates between the controls and this was calculated as described based on the calculated averages and standard deviations of the controls on a per plate basis. For the Tagg shift and the […] experiments the data were analyzed in GraphPad Prism using the Boltzmann sigmoid equation and the saturation binding curve (rectangular hyperbola; binding isotherm) function, respectively. As already discussed[14] these methods make use of equilibrium models for data analysis although the methodology depends on the irreversible aggregation of denatured material. For this reason we refer to the observed responses as apparent and isothermal dose-response fingerprints and are careful with any quantitative interpretations, being well aware of their dependency on experimental conditions. Experiments are on-going to address the quantitative interpretation of CETSA data.

TS in K562 cell lysates = target: T2, TS in K562 cell lysates (Homo sapiens, UniProt P04818); test: Western blot CETSA on K562 cell lysates; format: binding
T2 construct: screening in live, non-engineered cells expressing thymidylate synthase; endogenous in cells; host or cells: K562 (human myelogenous leukemia) cells
Protocol: For the cell lysate thermal shift experiments, cultured K562 cells were harvested and washed with Hank's Balanced Salt Solution. The cells were diluted in lysis buffer supplemented with complete protease inhibitor cocktail. The cell suspensions were freeze-thawed three times using liquid nitrogen and passed through a 27″ gauge needle five times. The soluble fraction (lysate) was separated from the cell debris by centrifugation at 20,000 × g for 20 min at 4 °C. For the thermal aggregation curve experiments cell lysates were diluted with lysis buffer supplemented with 200 μM dUMP and divided into two aliquots, with one aliquot being treated with ligand and the other aliquot with vehicle (control). […] The supernatants containing the remaining soluble proteins were transferred to new 0.2 ml microtubes and analyzed by sodium dodecyl sulfate polyacrylamide gel electrophoresis (SDS-PAGE) followed by western blot analysis.
NuPage Novex Bis-Tris 4–12% polyacrylamide gels with NuPAGE MES SDS running buffer (Life Technologies) were used for separation of proteins in the samples. […] Chemiluminescence intensities were detected and quantified using a ChemiDoc XRS+ imaging system (Bio-Rad) with Image Lab software (Bio-Rad).

Sequence of TS (P04818 whole entry): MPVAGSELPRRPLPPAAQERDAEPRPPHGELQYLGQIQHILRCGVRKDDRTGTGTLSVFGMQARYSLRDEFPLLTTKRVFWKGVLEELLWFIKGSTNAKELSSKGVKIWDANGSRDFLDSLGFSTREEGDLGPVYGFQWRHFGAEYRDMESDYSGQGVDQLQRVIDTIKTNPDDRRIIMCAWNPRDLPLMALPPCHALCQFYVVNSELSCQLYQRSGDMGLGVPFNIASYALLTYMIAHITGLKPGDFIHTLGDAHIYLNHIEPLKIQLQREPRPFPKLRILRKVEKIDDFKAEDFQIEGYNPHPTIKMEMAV
T2 sequence (P04818 2-313 limits assumed): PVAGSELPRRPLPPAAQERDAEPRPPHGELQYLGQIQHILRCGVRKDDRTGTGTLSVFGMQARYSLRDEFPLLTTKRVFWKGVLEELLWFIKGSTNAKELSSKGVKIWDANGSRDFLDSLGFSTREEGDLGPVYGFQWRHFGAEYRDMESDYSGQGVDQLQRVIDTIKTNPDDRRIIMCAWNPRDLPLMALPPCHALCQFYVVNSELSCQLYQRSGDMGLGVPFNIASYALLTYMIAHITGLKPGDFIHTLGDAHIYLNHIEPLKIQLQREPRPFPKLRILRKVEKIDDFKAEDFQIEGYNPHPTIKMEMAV
T1 sequence (P04818 2-313 limits assumed): as above

Row | Compound | ΔTm at 25 µM (TS; 25 μM compound, 500 μM dUMP, read-out: thermal shift of isolated recombinant human TS) | ΔTm at 100 µM (TS; 100 μM compound, 500 μM dUMP, read-out: thermal shift of isolated recombinant human TS) | % stabilization in screen at 50 µM ([1]; K562, 2 h; read-out: % stabilization in screen) | Tagg shift of TS in K562 cell lysates (TS in K562 cell lysates; 200 μM compound, lysate with 200 μM dUMP) | stabilization of recombinant TS (TS; 1 mM decitabine after treatment with recombinant DCK) | stabilization of recombinant TS in thermal shift assay (TS; nucleoside without enzyme treatment) | ΔTm at 1000 µM (TS; read-out: thermal shift of recombinant TS) | % stabilization in screen at 50 µM ([1]; K562, 2 h, read-out: % stabilization in screen) | stabilization of TS in treated K562 lysates (TS in K562 cell lysates; 200 µM decitabine)
1 | Cc1cc(O)nc2sc(C(=O)c3ccccc3)c(N)c12 [CBK115334, 3-amino-2-benzoyl-4-methylthieno(2,3-b)pyridin-6-ol] | 2.6 °C | 5.2 °C | 20% | 3.7 °C | – | – | – | – | –
2 | Nc1ncn([C@H]2C[C@H](O)[C@@H](CO)O2)c(=O)n1 [decitabine, 5-Aza-deoxycytidine] | – | – | – | – | only a marginal stabilization | did not stabilize | ~10 °C | 91% | not stabilized
